From ChEMBL document CHEMBL1155168, “Bound to shock: protection from lethal endotoxemic shock by a novel, nontoxic, alkylpolyamine lipopolysaccharide sequestrant” (Antimicrob Agents Chemother, 2007)
Calls of active or inactive are those of the source. No cut-off for these calls is given here.

What was measured:
[1] = Ex vivo inhibition of Escherichia coli lipopolysaccharide-stimulated IL8 production in human whole blood by multiplexed flow cytometric bead array system; format: tissue-based
[2] = Ex vivo inhibition of Escherichia coli lipopolysaccharide-stimulated IL6 production in human whole blood by multiplexed flow cytometric bead array system; format: tissue-based
[3] = Ex vivo inhibition of Escherichia coli lipopolysaccharide-stimulated TNFalpha production in human whole blood by multiplexed flow cytometric bead array system; format: tissue-based
J774.A1 = test: Inhibition of LPS-stimulated nitric oxide production in mouse J774A.1 cells after 16 hrs; format: functional, cell-based
[4] = Inhibition of Escherichia coli 055:B5 lipopolysaccharide-stimulated NF-kappaB induction in HEK-Blue cells assessed as expression of secreted alkaline phosphatase by seAP assay; format: cell-based
[5] = Inhibition of Pseudomonas aeruginosa lipopolysaccharide-stimulated NF-kappaB induction in HEK-Blue cells assessed as expression of secreted alkaline phosphatase by seAP assay; format: cell-based
[6] = Inhibition of Salmonella enterica serovar Abortus equi lipopolysaccharide-stimulated NF-kappaB induction in HEK-Blue cells assessed as expression of secreted alkaline phosphatase by seAP assay; format: cell-based
[7] = Inhibition of LPS-stimulated NF-kappaB induction in HEK-Blue cells assessed as expression of secreted alkaline phosphatase by seAP assay; format: cell-based
[8] = Inhibition of Vibrio cholerae lipopolysaccharide-stimulated NF-kappaB induction in HEK-Blue cells assessed as expression of secreted alkaline phosphatase by seAP assay; format: cell-based
[9] = Inhibition of Escherichia coli O111:B4 lipopolysaccharide-stimulated NF-kappaB induction in HEK-Blue cells assessed as expression of secreted alkaline phosphatase by seAP assay; format: cell-based
HEK-Blue [10] = test: Inhibition of IL-1-beta-stimulated NF-kappaB induction in HEK-Blue cells assessed as expression of secreted alkaline phosphatase by seAP assay; format: functional, cell-based; settings: Homo sapiens
Escherichia coli [11] = test: Displacement of BODIPY-cadaverine from Escherichia coli O111:B4 lipopolysaccharide
Mus musculus [12] = test: Toxicity in mouse in mouse assessed as polyamine level in plasma at 40 mg/kg/day, sc for 5 days relative to control; format: organism-based; set-up: route subcutaneous; settings: in vivo, 120 h
HEK-Blue [13] = test: Inhibition of TNF-alpha-stimulated NF-kappaB induction in HEK-Blue cells assessed as expression of secreted alkaline phosphatase by seAP assay; format: functional, cell-based; settings: Homo sapiens
HEK-Blue [14] = test: Inhibition of ionomycin-stimulated NF-kappaB induction in HEK-Blue cells assessed as expression of secreted alkaline phosphatase by seAP assay; format: functional, cell-based; settings: Homo sapiens
Mus musculus [15] = test: Toxicity in mouse at 40 mg/kg/day, sc after 5 days; format: organism-based; set-up: route subcutaneous; settings: in vivo, 120 h
HEK-Blue [16] = test: Inhibition of phorbol esters-stimulated NF-kappaB induction in HEK-Blue cells assessed as expression of secreted alkaline phosphatase by seAP assay; format: functional, cell-based; settings: Homo sapiens
Mus musculus [17] = test: Increase in survivality of sc dosed D-galactosamine-primed CF1 mouse model of LPS-induced lethal septic shock administered 1 hr prior to LPS challenge; format: functional, organism-based
Mus musculus [18] = test: Increase in survivality of sc dosed D-galactosamine-primed mouse model of TNF-alpha-induced lethal septic shock; format: functional, organism-based
Blood = test: Ex vivo inhibition of TNF-alpha-stimulated T180/Y182 dual phosphorylation of p38 MAPK in human whole blood by flow cytometry; format: functional, tissue-based
Mus musculus [19] = test: Inhibition of LPS-induced cytokines levels in D-galactosamine-primed mouse model of at 4 mg/kg, sc; format: functional, organism-based; set-up: dose 4 mg/kg
Mus musculus [20] = test: Increase in survivality of ip dosed D-galactosamine-primed mouse model of LPS-induced lethal septic shock administered as precomplex with LPS; format: functional, organism-based
Escherichia coli [21] = test: Ex vivo inhibition of Escherichia coli lipopolysaccharide-stimulated T180/Y182 dual phosphorylation of p38 MAPK in human whole blood by flow cytometry; format: tissue-based

POLYMYXIN B [listing 1 of 2 here]
IC50 [1]: 11000 nM
IC50 [2]: 11000 nM
IC50 [3]: 11000 nM
IC50 (J774.A1; j774.a1): 27 nM
IC50 ([4]; hek-blue): 30 nM
IC50 ([5]; hek-blue): 30 nM
IC50 ([6]; hek-blue): 562 nM
IC50 ([7]; hek-blue): 32 nM
IC50 ([8]; hek-blue): 30 nM
IC50 ([9]; hek-blue): 30 nM

CCCCCCCCCCCCCCCCNCCCNCCCNCCCCNCCCN.O=C(O)C(F)(F)F
IC50 ([1]; Escherichia coli, Blood): 3000 nM
IC50 ([2]; Escherichia coli, Blood): 3000 nM
IC50 ([3]; Escherichia coli, Blood): 3000 nM
IC50 (J774.A1; Mus musculus, J774.A1, 16 h): 21 nM
IC50 ([4]; Escherichia coli, HEK-Blue): 30 nM
Activity (HEK-Blue [10]): inactive
ED50 (Escherichia coli [11]): 1200 nM
Activity (Mus musculus [12]): Non-toxic
IC50 ([5]; Pseudomonas aeruginosa, HEK-Blue): 30 nM
Activity (HEK-Blue [13]): inactive
IC50 ([6]; Salmonella enterica, HEK-Blue): 82 nM
Activity (HEK-Blue [14]): inactive
IC50 ([7]; HEK-Blue): 32 nM
IC50 ([8]; Vibrio cholerae, HEK-Blue): 30 nM
Activity (Mus musculus [15]): Non-toxic
Activity (HEK-Blue [16]): inactive
Activity (Mus musculus [17]): Dose-dependent effect
IC50 ([9]; Escherichia coli, HEK-Blue): 30 nM
Activity (Mus musculus [18]): inactive
Activity (Blood): inactive
Activity (Mus musculus [19]): Active
Activity (Mus musculus [20]): Dose-dependent effect

POLYMYXIN B [listing 2 of 2 here]
Activity (Escherichia coli [21]): Dose-dependent effect
Activity (HEK-Blue [10]): inactive
ED50 (Escherichia coli [11]): 1310 nM
Activity (HEK-Blue [13]): inactive
Activity (HEK-Blue [14]): inactive
Activity (HEK-Blue [16]): inactive
Activity (Mus musculus [17]): Dose-dependent effect
Activity (Blood): inactive
Activity (Mus musculus [20]): Dose-dependent effect
